Results on 20 compounds are retold here after patent US9090600B2, “Fungicidal 4-substituted-3-{phenyl[(heterocyclylmethoxy)imino]methyl}-1,2,4-oxadizol-5(4H)-one derivatives” (BAYER INTELLECTUAL PROPERTY GMBH, priority 2011, dated 2015).

Marks after values point to notes of the source that are not given here.

For data set [1] the following is noted: pH 2.7.
The test system of another data set is Plasmopara viticola. Description: Plasmopara test (grapevines)/preventive. Format: in vivo. To be noted: preventive spray, 10 ppm of active ingredient, evaluated 6 days after inoculation. How it is done: Solvent: 24.5 parts by weight of acetone • 24.5 parts by weight of dimethylacetamide
Emulsifier: 1 part by weight of alkylaryl polyglycol ether
To produce a suitable preparation of active compound, 1 part by weight of active compound is mixed with the stated amounts of solvent and emulsifier, and the concentrate is diluted with water to the desired concentration.
To test for preventive activity, young plants are sprayed with the preparation of active compound at the stated rate of application. After the spray coating has dried on, the plants are inoculated with an aqueous spore suspension of Plasmopara viticola and then remain for 1 day in an incubation cabinet at approximately 20° C. and a relative atmospheric humidity of 100%. The plant is subsequently placed for 4 days in a greenhouse at approximately 21° C. and a relative atmospheric humidity of approximately 90%. The plants are then misted and placed for 1 day in an incubation cabinet.
The test is evaluated 6 days after the inoculation. 0% means an efficacy which corresponds to that of the untreated control, while an efficacy of 100% means that no disease is observed.

The test system of a further data set is Phytophthora infestans. The class given is in vivo. To be noted: tomato plants, spray, 500 ppm, grading 5 days after contamination.

Take `COc1cccc(OC(C)C(=O)Nc2nc(CO/N=C(/c3ccccc3)c3noc(=O)n3C)cs2)c1` (stereo not drawn) [Example 50]: the LogP in data set [1] was 3.71 [a]. Besides, the Eff. % with Plasmopara viticola is recorded as 95%; in the data set with Phytophthora infestans it was 94%.

Consider `COc1cccc(OCC(=O)Nc2cccc(CO/N=C(/c3ccccc3)c3noc(=O)n3C)n2)c1` [Example 51], for which, in data set [1], the LogP is 3.73 [a]. Besides, in the data set with Plasmopara viticola, the Eff. % is 91%.

As for `Cn1c(/C(=N\OCc2cccc(NC(=O)c3ccccc3)n2)c2ccccc2)noc1=O` [Example 54], in data set [1], the LogP is 3.51 [a]. The Eff. % was found to be 93% with Plasmopara viticola and 100% with Phytophthora infestans.

For the compound `Cn1c(/C(=N\OCc2cccc(NC(=O)CCC(C)(C)C)n2)c2ccccc2)noc1=O` [Example 59], the LogP in data set [1] was 4.15 [a]. Also, the Eff. % is recorded as 98% in the data set on Plasmopara viticola and 100% in the data set on Phytophthora infestans.

With `CC(OC(=O)Nc1cccc(CO/N=C(/c2ccccc2)c2noc(=O)n2C)n1)c1ccccc1` (stereo not drawn) [Example 68], the LogP in data set [1] is 4.23 [a]. Further, the Eff. % worked out at 90% in the data set with Plasmopara viticola and 100% in the data set with Phytophthora infestans.

As to `Cc1cccc(OC(C)C(=O)Nc2nc(CO/N=C(/c3ccccc3)c3noc(=O)n3C)cs2)c1` (stereo not drawn) [Example 80], the LogP in data set [1] was 3.99 [a]. Also, the Eff. % in the data set with Plasmopara viticola and in the data set on Phytophthora infestans was 98% each time.

In the case of `Cn1c(/C(=N\OCc2csc(NC(=O)COc3cccc(F)c3)n2)c2ccccc2)noc1=O` [Example 100], the LogP in data set [1] was 3.58 [a]. For the same compound, in the data set on Plasmopara viticola, the Eff. % is listed as 74%.

`Cn1c(C(=NOCc2cccc(NCC3CCCCC3)n2)c2ccccc2)noc1=O` [Example 116]: the LogP in data set [1] is 3.02 [a]. For the same compound, the Eff. % with Plasmopara viticola stood at 93%.

As for `Cn1c(/C(=N\OCc2csc(NC(=O)COC3CCCC3)n2)c2ccccc2)noc1=O` [Example 195], the LogP in data set [1] was 3.73 [a]. In addition, in the data set on Plasmopara viticola, the Eff. % turned out to be 95%.

As for `Cn1c(C(=NOCc2cccc(NC(=O)c3ccc(Cl)cc3)n2)c2ccccc2)noc1=O` [Example 245], the LogP in data set [1] is 4.01 [a]. The same compound had an Eff. % in the data set with Plasmopara viticola of 93%.

For `Cc1ccc(OCC(=O)Nc2cccc(CO/N=C(/c3ccccc3)c3noc(=O)n3C)n2)cc1` [Example 296], the LogP in data set [1] is 4.07 [a]. In the data set on Plasmopara viticola, this compound returned an Eff. % of 74%.

Consider `Cn1c(/C(=N\OCc2cccc(NC(=O)C(F)(F)Oc3ccccc3)n2)c2ccccc2)noc1=O` [Example 307], for which the LogP in data set [1] is 4.08 [a]. For the same compound, the Eff. % with Plasmopara viticola was 98%.

For the compound `CCCCC(C)(C)C(=O)Nc1cccc(CO/N=C(/c2ccccc2)c2noc(=O)n2C)n1` [Example 316], the LogP in data set [1] was 4.63 [a]. The same compound returned an Eff. % in the data set with Plasmopara viticola of 84%.

`Cn1c(/C(=N\OCc2cccc(NC(=O)Cc3ccc4ccccc4c3)n2)c2ccccc2)noc1=O` [Example 381]: the log partition coefficient (LogP) in data set [1] was 4.12 [a]. Moreover, the Eff. % in the data set with Phytophthora infestans stood at 75%.

Regarding `Cc1cccc(/C(=N/OCc2cccc(NC(=O)C(C)(C)C)n2)c2noc(=O)n2C)c1` [Example 387], in data set [1], the LogP is 3.85 [a]. This compound also came in with an Eff. % in the data set with Phytophthora infestans of 100%.

Consider `Cn1c(/C(=N\OCc2cccc(NC(=O)C3CCCC3)n2)c2ccccc2)noc1=O` [Example 388], for which the log partition coefficient (LogP) in data set [1] was 3.62 [a]. In the data set on Phytophthora infestans, the Eff. % turned out to be 100%.

With `C=CCCOC(=O)Nc1nc(CO/N=C(/c2ccccc2)c2noc(=O)n2C)cs1` [Example 394], in data set [1], the LogP was 3.44 [a]. In the data set on Phytophthora infestans, the Eff. % came to 90%.

`COc1ccc(C(=NOCc2cccc(NC(=O)OC(C)(C)C)n2)c2noc(=O)n2C)cc1` [Example 396]: the LogP in data set [1] was 3.96 [a]. The Eff. % in the data set on Phytophthora infestans was determined as 73%.

As for `CCn1c(/C(=N\OCc2cccc(NC(=O)CCc3ccccc3)n2)c2ccccc2)noc1=O` [Example 403], in data set [1], the lipophilicity (LogP) is 4.01 [a]. In the data set on Phytophthora infestans, the Eff. % is 100%.

For `COc1cccc(C(=NOCc2cccc(NC(=O)C(C)(C)C)n2)c2noc(=O)n2C)c1` [Example 407], the LogP in data set [1] was 3.55 [a]. Also, the Eff. % with Phytophthora infestans amounted to 95%.
